# Results: US20060167035A1, “Quinoline derivative, its use, production and pharmaceutical agents containing the latter” (priority 2004, published 2006)
# Target: T1, recombinant EphB4 kinase (Homo sapiens, UniProt P54760)
# T1 construct: purchased ProQinase GmbH, Freiburg, Germany
# T1 sequence (P54760 16-987): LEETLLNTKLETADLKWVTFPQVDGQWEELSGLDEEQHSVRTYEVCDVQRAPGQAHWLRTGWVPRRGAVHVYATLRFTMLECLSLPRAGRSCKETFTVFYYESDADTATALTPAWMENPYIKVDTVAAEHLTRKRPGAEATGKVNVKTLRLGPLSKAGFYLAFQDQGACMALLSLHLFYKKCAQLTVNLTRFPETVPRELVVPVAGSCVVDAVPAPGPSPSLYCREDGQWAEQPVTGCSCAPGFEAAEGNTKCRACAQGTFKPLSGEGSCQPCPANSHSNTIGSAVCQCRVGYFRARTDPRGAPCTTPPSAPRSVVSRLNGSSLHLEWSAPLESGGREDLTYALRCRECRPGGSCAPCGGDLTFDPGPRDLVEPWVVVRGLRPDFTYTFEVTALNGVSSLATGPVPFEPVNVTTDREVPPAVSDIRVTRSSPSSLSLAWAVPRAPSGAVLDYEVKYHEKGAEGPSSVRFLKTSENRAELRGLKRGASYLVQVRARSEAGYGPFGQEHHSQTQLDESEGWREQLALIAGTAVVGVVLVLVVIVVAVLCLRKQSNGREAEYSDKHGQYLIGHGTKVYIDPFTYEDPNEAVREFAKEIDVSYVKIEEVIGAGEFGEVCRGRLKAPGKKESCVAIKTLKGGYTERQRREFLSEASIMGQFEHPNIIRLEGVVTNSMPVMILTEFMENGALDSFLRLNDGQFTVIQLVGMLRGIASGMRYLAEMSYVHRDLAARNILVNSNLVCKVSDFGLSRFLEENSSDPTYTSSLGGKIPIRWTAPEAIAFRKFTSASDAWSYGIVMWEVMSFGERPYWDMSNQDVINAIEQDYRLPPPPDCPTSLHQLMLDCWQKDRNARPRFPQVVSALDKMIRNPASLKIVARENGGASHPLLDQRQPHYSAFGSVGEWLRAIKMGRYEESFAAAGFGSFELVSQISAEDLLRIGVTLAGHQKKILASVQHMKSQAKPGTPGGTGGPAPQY
# Assay: Test System for EphB4 (HTRF kinase assay)
# Assay type: biochemical
# Settings: polyGluAlaTyr substrate, 2 μM ATP, HTRF readout, read-out: IC50 of EphB4 kinase inhibition
# Description: A mixture that consists of 20 ng/ml of recombinant EphB4 kinase (ProQinase GmbH, Freiburg, Germany), 2.67 μg/ml of polyGluAlaTyr, 2 μM of ATP, 25 mmol of HEPES (pH 7.3), 5 mmol of MgCl2, 1 mmol of MnCl2, 2 mmol of DTT, 0.1 mmol of NaVO4, 1% (v/v) of glycerol, 0.02% NP40, EDTA-free protease inhibitors (Complete Roche Company, 1 tablet in 50 ml) is incubated for 10 minutes at 20° C. Test substances are dissolved in 100% DMSO and introduced in a 0.017× volume before the reaction begins. 60 minutes after 1.7× volume of a solution of 50 mmol of Hepes, pH 7.0, 0.2% BSA, 0.14 μg/ml of PT66-Europium, 3.84 μg/ml of SA-XL665, 75 mmol of EDTA is added, the batch is measured in a Discovery HTRF measuring device of the PerkinElmer Company.
row,IC50 [µM],Compound
1,0.27,"Cc1nc2c(ccc3nccc(Nc4cc(O)ccc4C)c32)s1 [Example 2, 4-Methyl-3-(2-methyl-thiazolo[4,5-f]quinolin-9-ylamino)-phenol]"

# Same assay, conditions: polyGluAlaTyr substrate, 2 μM ATP, HTRF readout, read-out: IC50 of EphB4 kinase inhibition (upper bound)
row,IC50 [µM],Compound
1,< 25,"Cc1ccc(O)cc1Nc1ccnc2ccc3sccc3c12 [Example 1, 4-Methyl-3-(thieno[3,2-f]quinolin-9-ylamino)-phenol]"
2,< 25,"Cc1nc2c(ccc3nccc(Nc4cc(O)ccc4C)c32)s1 [Example 2, 4-Methyl-3-(2-methyl-thiazolo[4,5-f]quinolin-9-ylamino)-phenol]"
3,< 25,"Cc1ccc(O)cc1Nc1ccnc2ccc3ccsc3c12 [Example 3, 4-Methyl-3-(thieno[2,3-f]quinolin-9-ylamino)-phenol]"
4,< 25,"Cc1ccc(O)cc1Nc1ccnc2ccc3c(c12)CCS3(=O)=O [Example 4, 3-(3,3-Dioxo-2,3-dihydro-1H-3λ^6-thieno[3,2-f]quinolin-9-ylamino)-4-methyl-phenol]"
5,< 25,"O=S1(=O)CCc2c1ccc1nccc(Nc3cccc(O)c3)c21 [Example 5, 3-(3,3-Dioxo-2,3-dihydro-1H-3λ^6-thieno[3,2-f]quinolin-9-ylamino)-phenol]"
6,< 25,"Cc1ccc(Nc2ccnc3ccc4c(c23)CCS4(=O)=O)cc1O [Example 15, 5-(3,3-Dioxo-2,3-dihydro-1H-3λ^6-thieno[3,2-f]quinolin-9-ylamino)-2-methylphenol]"
